This note sets out measurements from ChEMBL document CHEMBL1770073, “Synthesis of cinnamoyl ketoamides as hybrid structures of antioxidants and calpain inhibitors” (Bioorg Med Chem Lett, 2011).

Where only a bound is given, the exact number is not on record here.

For assay [1], the system named is Radical scavenging activity. As to the kind of experiment: Antioxidant activity assessed as DPPH free radical scavenging activity after 30 mins. The format is functional. A general note: Loss of DPPH colour is used to gauge radical scavenging.
Assay [2] is described as follows: Antioxidant activity assessed as xanthine-xanthine oxidase generated superoxide anion scavenging after 20 mins. It counts as functional.
A further assay deals with Liver. Description: Antioxidant activity in rat liver homogenates assessed as inhibition of lipid peroxidation by measuring formation of thiobarbituric acid-reactive substance after 30 mins. The following applies: 0.5 h. It counts as functional, tissue-based.
Assay [3] addresses T1, Calpain-1 catalytic subunit (Homo sapiens, UniProt P07384).
T1 sequence (P07384 whole entry): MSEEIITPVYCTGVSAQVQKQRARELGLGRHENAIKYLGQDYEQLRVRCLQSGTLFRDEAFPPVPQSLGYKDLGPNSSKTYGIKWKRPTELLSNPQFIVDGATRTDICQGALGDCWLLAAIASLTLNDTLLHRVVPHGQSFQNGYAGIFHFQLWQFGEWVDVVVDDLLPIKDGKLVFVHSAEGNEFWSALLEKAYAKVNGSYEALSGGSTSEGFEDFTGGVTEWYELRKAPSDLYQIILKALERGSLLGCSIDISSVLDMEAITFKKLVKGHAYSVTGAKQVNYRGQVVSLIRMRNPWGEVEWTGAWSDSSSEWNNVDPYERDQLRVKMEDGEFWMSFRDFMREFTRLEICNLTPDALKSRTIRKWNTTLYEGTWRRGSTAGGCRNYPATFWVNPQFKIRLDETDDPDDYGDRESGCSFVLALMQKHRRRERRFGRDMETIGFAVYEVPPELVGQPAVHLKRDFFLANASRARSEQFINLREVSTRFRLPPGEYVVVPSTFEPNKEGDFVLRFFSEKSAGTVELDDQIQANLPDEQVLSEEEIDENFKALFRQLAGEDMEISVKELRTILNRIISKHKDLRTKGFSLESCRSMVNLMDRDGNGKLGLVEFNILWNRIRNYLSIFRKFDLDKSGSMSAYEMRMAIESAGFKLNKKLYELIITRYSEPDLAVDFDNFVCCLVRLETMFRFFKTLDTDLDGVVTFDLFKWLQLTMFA
As to the kind of experiment: Inhibition of human erythrocytes mu-calpain using Suc-Leu-Tyr-AMC fluorogenic substrate after 30 mins by spectrofluorimetry.

Broadly, the IC50 is the point on the concentration scale where inhibition reaches its midpoint. Regarding `COc1ccc(OC)c(C(=O)CCC(=O)N[C@@H](Cc2ccccc2)C(=O)C(N)=O)c1`, the IC50 (in assay [1]; in assay [2]; in the assay with Liver) was greater than 100 µM in each case.

`CCCC/C(=C\c1ccc(O)c(O)c1)C(=O)N[C@@H](Cc1ccccc1)C(=O)C(=O)NCCc1ccc(OC)cc1` (stereo in doubt): the IC50 was found to be 0.5 µM in assay [3], 38.9 µM in assay [1], 41.4 µM in assay [2] and 5.88 µM in the assay on Liver.

As to `Cc1c(C(=O)N[C@@H](Cc2ccccc2)C(=O)C(N)=O)oc2ccccc2c1=O`, the IC50 is 0.07 µM in assay [3], greater than 100 µM in assay [1], greater than 100 µM in assay [2] and greater than 100 µM in the assay with Liver.

Regarding `Cc1c(C)c2c(c(C)c1O)CCC(C)(C(=O)O)O2` (stereo unspecified) [TROLOX], the IC50 with Liver stood at 71.4 µM.

As to `O=C1O[C@H]([C@@H](O)CO)C(O)=C1O` [ASCORBIC ACID], the IC50 in assay [1] was 30.8 µM; in assay [2], greater than 100 µM; in the assay with Liver, greater than 100 µM.

For `CCCC/C(=C\c1ccc(OC)c(OC)c1)C(=O)N[C@@H](Cc1ccccc1)C(=O)C(=O)NCCc1ccc(OC)cc1` (stereo in doubt), the IC50 in assay [3] is 1.38 µM; in assay [1], greater than 100 µM; in assay [2] it was greater than 100 µM; with Liver it was greater than 100 µM.

For the molecule `O=C(/C=C/c1ccc(O)c(O)c1)N[C@@H](Cc1ccccc1)C(=O)C(=O)NCc1ccccc1`, the IC50 in assay [3] stood at 6.07 µM; in assay [1], 40.4 µM; in assay [2], 31.2 µM; in the assay with Liver, 7.53 µM.

Consider `CCCC/C(=C\c1ccc(O)c(O)c1)C(=O)N[C@@H](Cc1ccccc1)C(=O)C(=O)NCc1ccccc1` (stereo in doubt), for which the IC50 in assay [3] came to 0.67 µM; in assay [1], 36.7 µM; in assay [2], 30.9 µM; in the assay on Liver, 7.34 µM.

On to `CCC/C(=C\c1ccc(O)c(O)c1)C(=O)N[C@@H](Cc1ccccc1)C(=O)C(=O)NCCc1ccc(OC)cc1` (stereo in doubt), for which the IC50 stood at 0.13 µM in assay [3], 48.6 µM in assay [1], 38 µM in assay [2] and 5.71 µM in the assay on Liver.

With `CC/C(=C\c1ccc(O)c(O)c1)C(=O)N[C@@H](Cc1ccccc1)C(=O)C(=O)NCCc1ccc(OC)cc1` (stereo in doubt), the IC50 in assay [3] was 0.46 µM; in assay [1] it was 46.1 µM; in assay [2], 29.2 µM; in the assay with Liver, 6.4 µM.

With `CC/C(=C\c1ccc(O)c(O)c1)C(=O)N[C@@H](Cc1ccccc1)C(=O)C(=O)NCc1ccccc1` (stereo in doubt), the IC50 in assay [3] was 0.61 µM; in assay [1], 45.5 µM; in assay [2], 15.5 µM; with Liver it was 6.09 µM.

Regarding `CC(C)C/C(=C\c1ccc(O)c(O)c1)C(=O)N[C@@H](Cc1ccccc1)C(=O)C(=O)NCc1ccccc1` (stereo in doubt), the IC50 in assay [3] was found to be 0.32 µM; in assay [1], 44.6 µM; in assay [2], 41.7 µM; in the assay on Liver it was 6.06 µM.

Consider `CCC/C(=C\c1ccc(O)c(O)c1)C(=O)N[C@@H](Cc1ccccc1)C(=O)C(=O)NCc1ccccc1` (stereo in doubt), for which the IC50 was 0.36 µM in assay [3], 42.2 µM in assay [1], 27.1 µM in assay [2] and 6.15 µM in the assay with Liver.

In the case of `CCCC/C(=C\c1ccc(O)c(OC)c1)C(=O)N[C@@H](Cc1ccccc1)C(=O)C(=O)NCCc1ccc(OC)cc1` (stereo in doubt), the IC50 in assay [3] is 0.63 µM; in assay [1] it was greater than 100 µM; in assay [2], greater than 100 µM; in the assay with Liver it was 36.1 µM.
